This note sets out measurements from patent US12435072B2, “Compounds” (Vicore Pharma AB, priority 2019, dated 2025).

Like-named read-outs stand apart in the source and are kept apart here.

Data set [1] in a line: Metabolic stability in pooled human liver microsomes. In kind it is in vitro ADME. The settings on record: pooled human liver microsomes 0.5 mg/ml, 1 μM test compound, 37° C. On the procedure:
Pooled human liver microsomes in PBS at a concentration of 0.5 mg/ml was incubated with or without 1 mM NADPH for 70 min at 37° C. Test compound was added after 10 minutes to a final concentration of 1 μM. Samples were withdrawn at 0, 5, 15 and 60 minutes and added to test tubes containing acetonitrile, to stop the reaction, and with terfenadine, used as internal standard. After centrifugation at 10 000×g for 5 minutes the supernatant was diluted 1:1 with 1% formic acid. Samples were separated on a reverse phase column and detected by triple quadrupole MSMS (Agilant model 6540). The concentration of the parent compound at the different time points was measured with an external standard curve using terfenadine as internal standard and the initial metabolic rate in the presence or absence of NADPH calculated.
A general note: Liver microsomes are a subcellular fraction often used to study metabolism.

In data set [2] the target is T1, CYP1A (Homo sapiens, UniProt P05177).
T1 construct: incubated with human liver microsomes; tissue Eurofins ITEMG232; host or cells: human liver microsomes
T1 sequence (P05177 1-516): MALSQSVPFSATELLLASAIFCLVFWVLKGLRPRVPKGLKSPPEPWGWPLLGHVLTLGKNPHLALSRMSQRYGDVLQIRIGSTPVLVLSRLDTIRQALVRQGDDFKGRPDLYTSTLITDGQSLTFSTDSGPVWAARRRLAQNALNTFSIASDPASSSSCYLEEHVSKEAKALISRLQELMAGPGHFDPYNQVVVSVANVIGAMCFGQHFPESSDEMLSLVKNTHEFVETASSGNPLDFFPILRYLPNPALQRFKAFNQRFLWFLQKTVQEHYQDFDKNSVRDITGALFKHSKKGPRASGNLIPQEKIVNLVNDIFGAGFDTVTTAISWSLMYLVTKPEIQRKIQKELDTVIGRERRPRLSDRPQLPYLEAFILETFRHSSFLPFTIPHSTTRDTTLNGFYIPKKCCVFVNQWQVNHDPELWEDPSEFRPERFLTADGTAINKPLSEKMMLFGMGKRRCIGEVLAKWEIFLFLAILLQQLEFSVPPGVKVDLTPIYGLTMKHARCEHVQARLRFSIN
The data set can be described thus: CYP inhibition in human liver microsomes, CYP1A. In kind it is in vitro ADME. Conditions: probe phenacetin, substrate phenacetin, read-out: CYP1A Inh %. Here is the method:
(§1) The following substrates were used: CYP1A phenacetin, CYP2B6 bupropion, CYP2C8 paclitaxel and amodiaquine, CYP2C9 diclofenac, CYP2C19 omeprazole, CYP2D6 dextromethorphan, CYP3A midazolam and testosterone. At the end of the incubation, the formation of metabolite was monitored by HPLC-MS/MS as the peak area response.

The target of data set [3] is T2, CYP2B6 (Homo sapiens, UniProt P20813).
T2 construct: incubated with human liver microsomes; tissue Eurofins ITEMG232; host or cells: human liver microsomes
T2 sequence (P20813 1-491): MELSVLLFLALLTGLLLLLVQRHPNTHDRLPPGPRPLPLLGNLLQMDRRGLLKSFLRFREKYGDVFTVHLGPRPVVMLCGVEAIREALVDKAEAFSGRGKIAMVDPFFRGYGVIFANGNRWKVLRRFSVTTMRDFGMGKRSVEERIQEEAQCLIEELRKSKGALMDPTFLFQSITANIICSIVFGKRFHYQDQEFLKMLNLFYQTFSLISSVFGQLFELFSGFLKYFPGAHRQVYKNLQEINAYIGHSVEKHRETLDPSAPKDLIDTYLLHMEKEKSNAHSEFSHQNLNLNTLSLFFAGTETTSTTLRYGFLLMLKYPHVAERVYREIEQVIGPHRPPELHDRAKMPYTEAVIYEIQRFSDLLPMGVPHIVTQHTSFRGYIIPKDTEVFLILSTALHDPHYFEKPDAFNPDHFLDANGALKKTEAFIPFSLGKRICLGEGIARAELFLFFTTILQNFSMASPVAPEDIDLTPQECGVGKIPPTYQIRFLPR
Briefly: CYP inhibition in human liver microsomes, CYP2B6. In kind it is in vitro ADME. Conditions: probe bupropion, substrate bupropion, read-out: CYP2B6 Inh %. On the procedure:
as §1

The target of data set [4] is T3, CYP2C19 (Homo sapiens, UniProt P33261).
T3 construct: incubated with human liver microsomes; tissue Eurofins ITEMG232; host or cells: human liver microsomes
T3 sequence (P33261 whole entry): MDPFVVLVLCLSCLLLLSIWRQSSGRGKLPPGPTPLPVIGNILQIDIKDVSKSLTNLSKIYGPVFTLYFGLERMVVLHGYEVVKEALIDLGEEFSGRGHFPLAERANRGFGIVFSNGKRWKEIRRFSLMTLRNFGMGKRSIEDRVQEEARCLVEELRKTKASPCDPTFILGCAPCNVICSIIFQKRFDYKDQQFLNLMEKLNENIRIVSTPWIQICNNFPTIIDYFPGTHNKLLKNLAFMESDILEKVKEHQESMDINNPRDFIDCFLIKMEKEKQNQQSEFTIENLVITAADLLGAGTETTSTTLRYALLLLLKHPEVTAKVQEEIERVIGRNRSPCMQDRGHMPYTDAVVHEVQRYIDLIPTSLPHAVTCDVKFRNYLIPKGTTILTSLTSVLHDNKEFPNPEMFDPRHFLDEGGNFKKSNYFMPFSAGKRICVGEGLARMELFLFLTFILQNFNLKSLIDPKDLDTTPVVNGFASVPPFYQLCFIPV
The data set can be described thus: CYP inhibition in human liver microsomes, CYP2C19. In kind it is in vitro ADME. The settings on record: probe omeprazole, substrate omeprazole, read-out: CYP2C19 Inh %. Here is the method: as §1

In data set [5] the target is T4, CYP2C8 (Homo sapiens, UniProt P10632).
T4 construct: incubated with human liver microsomes; tissue Eurofins ITEMG232; host or cells: human liver microsomes
T4 sequence (P10632 1-490): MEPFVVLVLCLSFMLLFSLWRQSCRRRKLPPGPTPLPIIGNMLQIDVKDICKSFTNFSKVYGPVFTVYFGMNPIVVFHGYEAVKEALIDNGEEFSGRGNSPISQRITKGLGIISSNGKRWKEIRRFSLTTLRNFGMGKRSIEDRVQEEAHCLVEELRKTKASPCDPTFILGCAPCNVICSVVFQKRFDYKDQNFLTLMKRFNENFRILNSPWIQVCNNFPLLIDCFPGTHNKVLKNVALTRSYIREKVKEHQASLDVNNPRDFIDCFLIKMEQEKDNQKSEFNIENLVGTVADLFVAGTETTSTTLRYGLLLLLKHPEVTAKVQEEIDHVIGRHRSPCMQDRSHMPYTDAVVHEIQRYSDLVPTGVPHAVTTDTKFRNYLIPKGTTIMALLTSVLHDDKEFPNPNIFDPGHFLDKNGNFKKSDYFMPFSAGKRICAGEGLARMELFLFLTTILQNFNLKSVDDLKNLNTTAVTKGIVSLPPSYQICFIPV
Briefly: CYP inhibition in human liver microsomes, CYP2C8. In kind it is in vitro ADME. Conditions: probe paclitaxel and amodiaquine, substrate paclitaxel and amodiaquine, read-out: CYP2C8 Inh %. Here is the method: as §1

In data set [6] the target is T5, CYP2D6 (Homo sapiens, UniProt P10635).
T5 construct: incubated with human liver microsomes; tissue Eurofins ITEMG232; host or cells: human liver microsomes
T5 sequence (P10635 whole entry): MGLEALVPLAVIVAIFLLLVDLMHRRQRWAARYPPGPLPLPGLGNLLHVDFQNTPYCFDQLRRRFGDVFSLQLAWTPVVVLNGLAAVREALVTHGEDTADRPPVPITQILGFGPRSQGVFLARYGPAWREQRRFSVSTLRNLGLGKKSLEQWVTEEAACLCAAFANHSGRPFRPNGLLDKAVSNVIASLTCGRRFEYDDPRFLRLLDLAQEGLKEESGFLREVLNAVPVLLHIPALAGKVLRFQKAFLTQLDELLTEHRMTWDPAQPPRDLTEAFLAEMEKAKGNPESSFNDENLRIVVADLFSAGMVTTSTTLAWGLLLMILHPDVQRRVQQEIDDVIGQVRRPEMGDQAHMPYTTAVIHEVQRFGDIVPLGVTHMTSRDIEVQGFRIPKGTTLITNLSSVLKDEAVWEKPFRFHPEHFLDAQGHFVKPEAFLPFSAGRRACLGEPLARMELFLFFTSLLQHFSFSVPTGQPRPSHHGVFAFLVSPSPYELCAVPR
The data set can be described thus: CYP inhibition in human liver microsomes, CYP2D6. In kind it is in vitro ADME. Conditions: probe dextromethorphan, substrate dextromethorphan, read-out: CYP2D6 Inh %. On the procedure: as §1

Data set [7] relates to CYP3A4&5. The data set can be described thus: CYP inhibition in human liver microsomes, CYP3A4&5 (testosterone). In kind it is in vitro ADME. The settings on record: probe testosterone, substrate testosterone, read-out: CYP3A4&5 testosterone Inh %. Here is the method: as §1
In data set [8] the target is CYP2C9 (Homo sapiens, UniProt P11712). Briefly: CYP inhibition in human liver microsomes, CYP2C9. In kind it is in vitro ADME. Also on record: incubated with human liver microsomes; tissue Eurofins ITEMG232; host or cells: human liver microsomes. The settings on record: probe diclofenac, substrate diclofenac, read-out: CYP2C9 Inh %. On the procedure:
as §1

Data set [9] deals with CYP3A4 (Homo sapiens, UniProt P08684). Briefly: CYP inhibition in human liver microsomes, CYP3A4 (midazolam). The settings on record: probe midazolam, substrate midazolam, read-out: CYP3A4 midazolam Inh %. Set-up: incubated with human liver microsomes; tissue Eurofins ITEMG232; host or cells: human liver microsomes. In kind it is in vitro ADME. On the procedure: as §1
Chain of CYP3A4 (P08684 whole entry): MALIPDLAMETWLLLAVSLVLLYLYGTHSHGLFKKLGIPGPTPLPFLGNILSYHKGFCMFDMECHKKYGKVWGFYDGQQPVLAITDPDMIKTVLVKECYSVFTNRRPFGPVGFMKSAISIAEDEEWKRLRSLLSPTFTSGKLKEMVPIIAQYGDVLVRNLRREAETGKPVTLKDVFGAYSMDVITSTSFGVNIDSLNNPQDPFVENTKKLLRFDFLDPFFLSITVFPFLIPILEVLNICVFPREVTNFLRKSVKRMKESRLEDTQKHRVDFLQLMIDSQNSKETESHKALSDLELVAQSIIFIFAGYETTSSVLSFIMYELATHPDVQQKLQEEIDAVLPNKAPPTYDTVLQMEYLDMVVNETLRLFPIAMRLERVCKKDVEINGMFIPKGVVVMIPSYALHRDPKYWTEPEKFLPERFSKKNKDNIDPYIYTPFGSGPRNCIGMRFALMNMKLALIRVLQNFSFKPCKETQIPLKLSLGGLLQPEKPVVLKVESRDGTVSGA
Data set [10] concerns the target T6, human recombinant AT2 receptor (Homo sapiens, UniProt P50052).
T6 construct: purchased Eurofins ITEM26
T6 sequence (P50052 1-363): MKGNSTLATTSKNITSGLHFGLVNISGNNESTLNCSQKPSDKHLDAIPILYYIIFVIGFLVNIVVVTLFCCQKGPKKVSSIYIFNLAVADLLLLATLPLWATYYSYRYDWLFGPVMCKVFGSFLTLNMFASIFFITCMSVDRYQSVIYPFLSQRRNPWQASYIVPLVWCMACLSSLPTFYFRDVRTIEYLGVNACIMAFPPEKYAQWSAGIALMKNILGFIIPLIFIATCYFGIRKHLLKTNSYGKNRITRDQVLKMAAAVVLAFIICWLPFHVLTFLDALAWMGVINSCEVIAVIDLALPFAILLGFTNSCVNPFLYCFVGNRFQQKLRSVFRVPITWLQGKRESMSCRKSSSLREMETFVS
Briefly: Binding to AT2 receptor, radiometric scintillation assay (Eurofins). Conditions: ligand 125I CGP 42112A, tested at 1, 10, 100 and 1000 nM. Here is the method:
Compounds were evaluated for binding to the human recombinant AT2 and AT1 receptor according to Eurofins protocol ITEM26 and ITEM24 using a radiometric scintillation assay.

The mark [11] stands for this setting: with 1 mM NADPH, read-out: T1/2, + NaDPH.
Setting [12] is: without NADPH, read-out: T1/2, no NaDPH.

Chain of CYP2C9 (P11712 whole entry): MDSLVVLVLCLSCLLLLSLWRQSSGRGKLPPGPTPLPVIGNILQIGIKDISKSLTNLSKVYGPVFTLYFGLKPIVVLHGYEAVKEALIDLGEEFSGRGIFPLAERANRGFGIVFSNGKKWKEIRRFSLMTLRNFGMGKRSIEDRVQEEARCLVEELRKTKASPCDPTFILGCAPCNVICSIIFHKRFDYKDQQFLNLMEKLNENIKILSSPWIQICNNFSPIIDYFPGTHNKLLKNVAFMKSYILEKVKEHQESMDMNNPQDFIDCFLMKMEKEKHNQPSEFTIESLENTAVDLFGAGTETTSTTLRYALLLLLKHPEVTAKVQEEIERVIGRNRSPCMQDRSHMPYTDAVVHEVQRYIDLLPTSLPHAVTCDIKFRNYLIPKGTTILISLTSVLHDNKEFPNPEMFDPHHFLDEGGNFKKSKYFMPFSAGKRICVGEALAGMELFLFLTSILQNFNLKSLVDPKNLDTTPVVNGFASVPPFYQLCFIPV

On to `Cc1nccn1Cc1ccc(-c2cc(CC(C)C)sc2S(=O)(=O)NC(=O)NCCC(F)(F)F)cc1` [Example 3, 3-(5-isobutyl-3-{p-[(2-Methyl-1H-imidazol-1-yl)methyl]phenyl}-2-thienylsulfonyl)-1-(3,3,3-trifluoropropyl)-urea], for which the half-life at 1 μM in data set [1] (setting [11]) and in [1] (setting [12]) was above 1 h each time. Moreover, the inhibition at 10 µM in [2] is -4.2%; in data set [3] it was 9.9%; in data set [4], 37.3%; in data set [5], 25.3%; in data set [6] it was 5.5%; in data set [7], 8.2%. Also, the values for the inhibition at 10 µM in data set [8] and in data set [9] were 21.6% and 4.1%, respectively.

Turning to `Cc1cn(Cc2ccc(-c3cc(CC(C)C)sc3S(=O)(=O)NC(=O)NCCC(F)(F)F)cc2)c(C)n1` [Example 8, 3-(3-{p-[(2,4-Dimethyl-1H-imidazol-1-yl)methyl]phenyl}-5-isobutyl-2-thienylsulfonyl)-1-(3,3,3-trifluoropropyl)urea], the figures for the half-life at 1 μM in data set [1] (setting [11]) and in data set [1] (setting [12]) were 0.767 h and above 1 h, respectively. For the same compound, the inhibition at 10 µM in data set [2] is 21.2%; in [3], 18.8%; in data set [4], 95.8%; in data set [5], 60.2%; in [6], 0%; in data set [7] it was 29.8%. Moreover, the figures for the inhibition at 10 µM in [8] and in data set [9] were 24% and 17.5%, respectively.

As to `CCc1nccn1Cc1ccc(-c2cc(CC(C)C)sc2S(=O)(=O)NC(=O)NCc2ccccn2)cc1` [Example 9, 3-(3-{p-[(2-Ethyl-1H-imidazol-1-yl)methyl]phenyl}-5-isobutyl-2-thienylsulfonyl)-1-[(2-pyridyl)methyl]urea], the half-life at 1 μM in data set [1] (setting [11]) and in data set [1] (setting [12]) was above 1 h in each case. The inhibition at 10 µM in data set [2] was -9%; in data set [3], 0%; in data set [4], 18%; in data set [5], 52%; in [6], 24%; in [7] it was 17%. In addition, the inhibition at 10 µM was 28% in [8] and -19% in data set [9].

As for `Cc1nccn1Cc1ccc(-c2cc(CC(C)C)sc2S(=O)(=O)NC(=O)NCc2ccccc2)cc1F` [Example 12, 1-Benzyl-3-(3-{3-fluoro-4-[(2-methyl-1H-imidazol-1-yl)methyl]phenyl}-5-isobutyl-2-thienylsulfonyl)urea], the inhibition at 10 µM is 4% in data set [2]; 33% in data set [3]; 62% in data set [4]; 51% in data set [5]; 58% in data set [6]; 24% in data set [7]. The inhibition at 10 µM in data set [8] worked out at 64%; in [9], 32%.

For `Cc1nccn1Cc1ccc(-c2cc(CC(C)C)sc2S(=O)(=O)NC(=O)NCCC(F)(F)F)c(F)c1` [Example 26, 3-(3-{2-Fluoro-4-[(2-methyl-1H-imidazol-1-yl)methyl]phenyl}-5-isobutyl-2-thienylsulfonyl)-1-(3,3,3-trifluoropropyl)urea], the half-life at 1 μM in [1] (setting [11]) and in [1] (setting [12]) was above 1 h in each case. For the same compound, the IC50 in data set [10] came to 25 nM.

`Cc1nccn1Cc1ccc(-c2cc(CC(C)C)sc2S(=O)(=O)NC(=O)NCC(F)(F)F)c(F)c1` [Example 27, 3-(3-{2-Fluoro-4-[(2-methyl-1H-imidazol-1-yl)methyl]phenyl}-5-isobutyl-2-thienylsulfonyl)-1-(2,2,2-trifluoroethyl)urea]: the half-maximal inhibitory concentration (IC50) in data set [10] was 61 nM.

For the compound `Cc1nccn1Cc1ccc(-c2cc(CC(C)C)sc2S(=O)(=O)NC(=O)NCCCF)cc1` [Example 28, 1-(3-Fluoropropyl)-3-(5-isobutyl-3-{p-[(2-methyl-1H-imidazol-1-yl)methyl]phenyl}-2-thienylsulfonyl)urea], the half-life at 1 μM in data set [1] (setting [11]) and in [1] (setting [12]) was above 1 h throughout. Also, the half-inhibitory concentration (IC50) in data set [10] is 32 nM.

Take `Cc1nccn1Cc1ccc(-c2cc(CC(C)C)sc2S(=O)(=O)NC(=O)NCCC(F)F)cc1` [Example 29, 1-(3,3-Difluoropropyl)-3-(5-isobutyl-3-{p-[(2-methyl-1H-imidazol-1-yl)methyl]phenyl}-2-thienylsulfonyl)urea]: the concentration for half-maximal inhibition (IC50) in data set [10] turned out to be 33 nM.

The IC50 is the concentration needed to halve the response being measured.
